Like-named read-outs stand apart in the source and are kept apart here.
Experiments:
human BACE1 = human BACE1 (Homo sapiens (Human), UniProt P56817); experiment: BACE1 binding assay (SPA-based, radioligand displacement); conditions: pH 4.5, Ki calculated from IC50
Protocol: The binding assay was performed as SPA-based assay using a biotinylated form of human BACE1 recombinantly expressed and subsequently purified from Freestyle HEK293 cells. The binding assay was run in a 50 mM sodium acetate buffer, pH 4.5 containing 50 mM NaCl and 0.03% Tween-20 in white clear bottom 384 plates (Corning #3653). 10 nM (final concentration) radioligand ([^3H]—N-((1S,2R)-1-benzyl-3-cyclopropylamino-2-hydroxy-propyl)-5-(methanesulfonyl-methyl-amino)-N—((R)-1-phenyl-ethyl)-isophthalamide) (TRQ11569 purchased from GE Healthcare) was mixed with test compound at a given concentration, 6 nM (final concentration) human BACE1 and 25 μg Streptavidin coated PVT core SPA beads (RPNQ0007, GE Healthcare Life Sciences) in a total volume of 40 μl. Several concentrations of each test compound were tested in the assay for IC50 determination. The plates were incubated for one hour at room temperature and counted in a Wallac Trilux counter. Total and non-specific binding were determined using buffer and 1 μM (final concentration) of the high affinity BACE1 reference inhibitor (S)-6-[3-chloro-5-(5-prop-1-ynyl-pyridin-3-yl)-thiophen-2-yl]-2-imino-3,6-dimethyl-tetrahydro-pyrimidin-4-one, respectively. For each test compound, a IC50 value (the concentration mediating 50% inhibition of the specific binding of the radioligand) was determined from concentration-response curve and used to calculate the Ki from the equation Ki=IC50/(1+L/Kd), where L and Kd are the final concentration of the radioligand used in the assay and the dissociation constant of the radioligand, respectively. The Kd of the radioligand was determined from saturation binding experiments.

Aβ40 = experiment: Assessment of Aβ40 levels in rat brain and plasma following BACE1 inhibition (ELISA); type: in vivo; conditions: 3 hours post dose, vs vehicle
Protocol: (§1) Young adult Male Sprague Dawley rats of approximately 250 g weight were purchased from Charles River and received 0-30 mg/kg of vehicle (10% HP betaCD+1M MeSO4, pH 2.5) or test compounds (dissolved in vehicle) only by oral gavage (p.o). The compounds are dosed at a volume of 5 ml/kg. Cohorts of 5-10 animals were established for each treatment condition.
(§2) At T=180 minutes after initial dosing the animals were stunned and decapitated with a guillotine. Trunk-blood was sampled in EDTA coated tubes after decapitation of the animal. The blood was centrifuged at 2200 G at 4° C. for 15 minutes and the plasma was collected and frozen at −80° C. The blood was aliquoted for Aβ ELISA and DMPK analysis Immediately following sacrifice, the brain was extracted and split into 2 halves. The right hemibrains were snap frozen on dry ice and stored at −80° C. The left half was dissected; with the front forebrain taken for Aβ ELISA and the remainder used for DMPK analysis. These samples were also snap frozen on dry ice and stored at −80° C. until use for analysis.
The cortex samples were thawed slightly on wet ice before they were homogenized with a small volume dispersing instrument (T10 basic ULTRA-TURRAX®) which was set at speed 5 for approximately 5-7 sec. The tissue was processed in a 10 times volume of the weight, for example 100 mg of tissue was homogenized in 1000 μL of Homogenization buffer. Homogenization buffer: 50 ml Milli Q water+[…]+0.2% Diethylamin (DEA)+1 tablet of Complete Protease inhibitor cocktail+1 nM 4-(2-aminoethyl)benzenesulfonyl fluoride hydrochloride irreversible serine protease inhibitor (AEBSF).
After homogenization 450 μL aliquots of the samples are collected into a 1.5 ml Eppendorf tube and placed on wet ice, 0.5% NP-40 (50 ul) was added to all samples and then they were incubated on ice for 30 min. After which all samples were sonicated using an Ultrasonic homogenizer with 20 kHz homogeneous sound (SONOPLUS HD2070, Bandelin Electronic) 10 pulse set at 12-13% power to extract all the Aβ species. The samples were then centrifuged (Ole Dich 157 MPRF Micro centrifuge) at 20000 G for 20 minutes at 4° C. After centrifugation 285 μL of the supernatant was pipetted into 600 μL microtubes tubes and neutralized with 15 μL of 1M Tris-HCL buffer.
WAKO 294-62501 Human/Rat Abeta amyloid (40) kit was used for all ELISA analyses. 30 μL plasma samples or 30 μL of the cortex supernatants generated as described above were placed in 600 μL microtubes tubes on wet ice. To this 30 μL of 8M Urea (AppliChem A1049, 9025) are added to generate a 2-fold dilution. Both plasma and cortex supernatants are incubated on ice for 30 min. Standard rows were prepared from the standard peptide stock provided in the kit and standard diluent containing 1.6M Urea (200 μL 8M Urea+800 μL of standard diluent) and 0.8M Urea (400 μL 8M Urea+3600 μL Standard diluent). A serial 2-fold dilution of Aβ40 from 100 pmol/ml to 0 pmol/L was prepared for the assay.
After incubation with urea, all samples were further diluted by addition of 5 times standard diluent from the Kit. This was done by adding 240 μL Standard Diluent to 60 μL sample/urea mixture, which was then mixed well. 100 μL of each diluted sample was pipetted into designated wells of the ELISA plate in duplicates. The plate was then covered and incubated overnight at 4° C. The following day, the ELISA kit was brought to room temperature before use. The incubated plate was washed 5 times with the 20× washing solution diluted in Milli Q water. 100 μL HRP-conjugate was applied to each well, and the plate was covered and incubates at 4° C. for 1 hr. The wash was repeated again for 5 times. 100 μL 3,3′,5,5′-Tetramethylbenzidine (TMB) solution was applied to each well and the plate was covered and incubated in the dark at room temperature for 30 minutes. […]

[1] = Brain and plasma exposure in rats after oral dosing (DMPK analysis); type: in vivo; conditions: male, Sprague Dawley, 3 hours post dose, rat, read-out: Brain/Plasma ratio
Protocol: as §1, §2
Compounds 1, 5, 17, 18, and 24 were administered at doses of 10 or 30 mg/kg p.o. and brain and plasma samples were collected at 3 hours post dose and the following exposures and reductions in Aβ40 levels were measured as described above.

Sequence of human BACE1 (P56817 46-501): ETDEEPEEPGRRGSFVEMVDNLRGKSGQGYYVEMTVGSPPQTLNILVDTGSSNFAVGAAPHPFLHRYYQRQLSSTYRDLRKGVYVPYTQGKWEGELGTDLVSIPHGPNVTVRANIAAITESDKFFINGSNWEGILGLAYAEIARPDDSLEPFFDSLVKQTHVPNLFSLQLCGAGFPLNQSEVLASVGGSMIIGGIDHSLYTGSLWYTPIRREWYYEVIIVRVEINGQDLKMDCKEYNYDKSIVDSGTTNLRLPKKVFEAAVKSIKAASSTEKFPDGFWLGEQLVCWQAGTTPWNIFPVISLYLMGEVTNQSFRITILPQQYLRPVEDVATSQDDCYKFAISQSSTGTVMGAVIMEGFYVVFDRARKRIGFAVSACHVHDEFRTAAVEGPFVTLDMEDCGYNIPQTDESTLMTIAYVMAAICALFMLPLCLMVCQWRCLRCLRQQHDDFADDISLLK

Structure (SMILES) | Ki (human BACE1) | Aβ40 reduction, Brain Rat (Aβ40; 10 mg/kg p.o.) | Aβ40 reduction, Plasma Rat (Aβ40; 10 mg/kg p.o.) | Aβ40 reduction, Brain Rat (Aβ40; 30 mg/kg p.o.) | Aβ40 reduction, Plasma Rat (Aβ40; 30 mg/kg p.o.) | Kp at 3 h ([1]; 10 mg/kg p.o.) | Kp at 3 h ([1]; 30 mg/kg p.o.)
COc1cnc(C(=O)Nc2ccc(F)c([C@@]3(C)N=C(N)[C@@](C)(F)CC3(F)F)c2)cn1 [Compound 5, N-(3-((2R,5S)-6-amino-3,3,5-trifluoro-2,5-dimethyl-2,3,4,5-tetrahydropyridin-2-yl)-4-fluorophenyl)-5-methoxypyrazine-2-carboxamide] | 18 nM | 34% | 34% | 61% | 39% | 1.3 | 1.5
C[C@]1(F)CC(F)(F)[C@@](C)(c2cc(NC(=O)c3ccc(F)cn3)ccc2F)N=C1N [Compound 1, N-(3-((2R,5S)-6-amino-3,3,5-trifluoro-2,5-dimethyl-2,3,4,5-tetrahydropyridin-2-yl)-4-fluorophenyl)-5-fluoropicolinamide] | 83 nM | – | – | 56% | 41% | – | 0.62
COc1ccc(C(=O)Nc2ccc(F)c([C@@]3(C)N=C(N)[C@@](C)(F)CC3(F)F)c2)nc1 [Compound 17, N-(3-((2R,5S)-6-amino-3,3,5-trifluoro-2,5-dimethyl-2,3,4,5-tetrahydropyridin-2-yl)-4-fluorophenyl)-5-methoxypicolinamide] | 11 nM | – | – | 63% | 49% | – | 1.48
Cc1cc(C#N)cnc1C(=O)Nc1ccc(F)c([C@@]2(C)N=C(N)[C@@](C)(F)CC2(F)F)c1 [Compound 18, N-(3-((2R,5S)-6-amino-3,3,5-trifluoro-2,5-dimethyl-2,3,4,5-tetrahydropyridin-2-yl)-4-fluorophenyl)-5-cyano-3-methylpicolinamide] | 4.3 nM | 66% | 54% | 61% | 50% | 0.53 | 0.54
